The subject of one experiment is Candida albicans. Description: Susceptibility assay (MIC, broth microdilution, CLSI M27). It counts as cell-based. Particulars: for MIC: 24 h.
The next experiment relates to Candida auris. Described as above. Type of experiment: cell-based. The following applies: for MIC: Candidozyma auris, 24 h; for resistance of strain to antifungal (breakpoint): C. auris ATCC MYA-5001, CLSI/EUCAST breakpoints.
For another experiment, the system named is Cryptococcus neoformans. Described as above. Type of experiment: cell-based. The following applies: for MIC: Cryptococcus neoformans, ATCC208821, 72 h, 72 h.
Experiment [1] relates to Aspergillus fumigatus spores. Description: Susceptibility assay for sporulating fungi (MIC, EUCAST E.Def.9.4). Particulars: for MIC: ATCC1022, Aspergillus fumigatus ATCC 1022 spores. It counts as cell-based.
The next experiment concerns C. auris (MYA-5001). Type of experiment: cell-based, Candida auris. The following applies: C. auris; daily exposure to 1/10th of MIC; by passage 5.
Experiment [2] has as its system C. neoformans (ATCC208821). Type of experiment: cell-based, Cryptococcus neoformans. Particulars: C. neoformans; daily exposure to 1/10th of MIC; by passage 5.
[3] abbreviates: Cryptococcus neoformans ATCC 208821.
Setting [4] is: Cryptococcus neoformans ATCC MYA-4566.
Setting [5] is: Cryptococcus neoformans ATCC MYA-4567.

In brackets after ≈: the same amount, converted by molar mass. Several values for one entry are separate records, joined by “and”; a condition that tells them apart may be missing. Equal values may be shown once. Read-outs that look alike come from different tables or passages of the source.

For `NCCNCCN` [DETA, Diethylenetriamine, reference compound], the “MIC of base scaffold” value in the experiment with Candida albicans (Candida albicans ATCC 14053), in the experiment with Candida albicans (Candida albicans ATCC 18804), in the experiment on Candida albicans (Candida albicans ATCC MYA-2876), in the experiment on Candida auris (Candida auris ATCC MYA-5000), in the experiment with Candida auris (Candida auris ATCC MYA-5001) and in the experiment on Candida auris (Candida auris ATCC MYA-5003) was over 20000 µg/mL each time. In addition, the “MIC of base scaffold” value in the experiment on Cryptococcus neoformans (setting [3]) is over 20000 µg/mL; with Cryptococcus neoformans (setting [4]), over 20000 µg/mL; in the experiment with Cryptococcus neoformans (setting [5]), 10000 µg/mL.

Regarding `Clc1ccc(COC(Cn2ccnc2)c2ccc(Cl)cc2Cl)c(Cl)c1` (stereo not drawn) [miconazole, reference compound], the MIC in the experiment with Candida albicans (Candida albicans ATCC MYA-2876) is 60 µg/mL (≈ 144 µM); against Candida auris (Candida auris ATCC MYA-5001) it was 4 µg/mL (≈ 9.61 µM); against Cryptococcus neoformans (setting [3]), 0.5 µg/mL (≈ 1.2 µM); in experiment [1], over 500 µg/mL.

For the compound `CN(Cc1ccc(C(C)(C)C)cc1)Cc1cccc2ccccc12` [butenafine, reference compound], the MIC against Candida albicans (Candida albicans ATCC MYA-2876) was over 4000 µg/mL; in the experiment with Candida auris (Candida auris ATCC MYA-5001), over 4000 µg/mL; against Cryptococcus neoformans (setting [3]), 0.3 µg/mL (≈ 0.945 µM); in experiment [1] it was over 500 µg/mL.

Take `Nc1nc(=O)[nH]cc1F` [5-fluorocytosine, reference compound]: the MIC is 0.125 µg/mL (≈ 0.968 µM) against Candida albicans (Candida albicans ATCC MYA-2876), 2 µg/mL (≈ 15.5 µM) in the experiment with Candida auris (Candida auris ATCC MYA-5001), 4 µg/mL (≈ 31 µM) in the experiment with Cryptococcus neoformans (setting [3]) and over 62.5 µg/mL in experiment [1]. Besides, the “increase of MIC and MFC values after serial passaging” value (in the experiment with C. auris (MYA-5001); in experiment [2]) was “over 256 fold” each time.

As to `NCCCNCCCCNCCCN` [SPER, spermine, reference compound], the “MIC of base scaffold” value with Candida albicans (Candida albicans ATCC 14053) was 20000 µg/mL; with Candida albicans (Candida albicans ATCC 18804), over 20000 µg/mL; with Candida albicans (Candida albicans ATCC MYA-2876), over 20000 µg/mL; with Candida auris (Candida auris ATCC MYA-5000), over 20000 µg/mL; in the experiment on Candida auris (Candida auris ATCC MYA-5001), over 20000 µg/mL; in the experiment with Candida auris (Candida auris ATCC MYA-5003), over 20000 µg/mL. In addition, the results for the “MIC of base scaffold” value with Cryptococcus neoformans (setting [3]), in the experiment on Cryptococcus neoformans (setting [4]) and in the experiment on Cryptococcus neoformans (setting [5]) were 5000 µg/mL, 2500 µg/mL and 2500 µg/mL, respectively.

For `CC[C@H](C)C[C@H](C)CCCCCCCCC(=O)N[C@H]1C[C@@H](O)[C@@H](NCCN)NC(=O)[C@@H]2[C@@H](O)CCN2C(=O)[C@H]([C@H](O)CCN)NC(=O)[C@H]([C@H](O)[C@@H](O)c2ccc(O)cc2)NC(=O)[C@@H]2C[C@@H](O)CN2C(=O)[C@H]([C@@H](C)O)NC1=O` [caspofungin, reference compound], the MIC in the experiment with Candida albicans (Candida albicans ATCC MYA-2876) was 0.25 µg/mL (≈ 0.229 µM); against Candida auris (Candida auris ATCC MYA-5001) it was over 32 µg/mL; in the experiment with Cryptococcus neoformans (setting [3]), 32 µg/mL (≈ 29.3 µM); in experiment [1], 125 µg/mL (≈ 114 µM). Also, in the experiment on Candida auris, the “resistance of strain to antifungal (breakpoint)” value (“resistance of strain” for short) is reported as “resistant”.

On to `C[C@@H]1[C@H](O)[C@@H](C)/C=C/C=C/C=C/C=C/C=C/C=C/C=C/[C@H](O[C@@H]2O[C@H](C)[C@@H](O)[C@H](N)[C@@H]2O)C[C@@H]2O[C@](O)(C[C@@H](O)C[C@@H](O)[C@H](O)CC[C@@H](O)C[C@@H](O)CC(=O)O[C@H]1C)C[C@H](O)[C@H]2C(=O)O` [amphotericin B, reference compound], for which the MIC was 0.25 µg/mL (≈ 0.271 µM) with Candida albicans (Candida albicans ATCC MYA-2876), 0.5 µg/mL (≈ 0.541 µM) with Candida auris (Candida auris ATCC MYA-5001), 0.195 µg/mL (≈ 0.211 µM) with Cryptococcus neoformans (setting [3]) and 2.5 µg/mL (≈ 2.71 µM) in experiment [1]. In experiment [1] (A. fumigatus ATCC 1022, CLSI/EUCAST breakpoints), the “resistance of strain” value was “resistant”.

With `OC(Cn1cncn1)(Cn1cncn1)c1ccc(F)cc1F` [fluconazole, reference compound], the “resistance of strain” value was “resistant” in the experiment on Candida albicans (C. albicans ATCC MYA-2876, CLSI/EUCAST breakpoints) and “resistant” with Candida auris. In addition, the MIC with Candida albicans (Candida albicans ATCC MYA-2876) was over 32 µg/mL; against Candida auris (Candida auris ATCC MYA-5001), over 32 µg/mL; against Cryptococcus neoformans (setting [3]), 4 µg/mL (≈ 13.1 µM); in experiment [1], over 125 µg/mL.

Consider `NCCCNCCCN` [DPTA, bis(3-aminopropyl) amine, reference compound], for which the “MIC of base scaffold” value was 20000 µg/mL with Candida albicans; over 20000 µg/mL in the experiment on Candida auris; 5000 µg/mL and 2500 µg/mL in the experiment on Cryptococcus neoformans.

These data come from publication PMC11121837, “Impact of Nitric Oxide-Release Kinetics on Antifungal Activity” (Journal of Fungi, 2024).
